Values of other authors in publication PMC10251984, “Interactions of IDO and the Kynurenine Pathway with Cell Transduction Systems and Metabolism at the Inflammation–Cancer Interface” (Cancers, 2023).
Where two headings read alike, the source gives them in different places.

Assays:
IDO [1] = test system: IDO; design: method as in PMID 32024760; settings: IDO activity enhanced
[2] = design: method as in PMID 29040756, PMID 25330068
Lewis lung carcinomas = test system: Lewis lung carcinomas; design: method as in PMID 32847988; settings: combination with celecoxib
PD-L1 [3] = settings: disrupts the interaction between Myc and HIF-1α
multiple myeloma = test system: multiple myeloma; design: method as in PMID 29089645, PMID 29487385
IDO1 [4] = test system: IDO1; design: method as in PMID 28212885; settings: COX-2 inhibitor
T cell = test system: T cell; design: method as in PMID 31648326; settings: MEK inhibitor
IDO1 [5] = test system: IDO1; design: method as in PMID 30227893, PMID 35269712; settings: IDO1 inhibitor; read-out: IC50 in direct enzyme assay
[6] = test system: Metastatic prostate cancer; settings: combination with sipuleucel-T; Phase 2
Metastatic breast cancer = settings: compared with taxane; Phase 2
[7] = test system: triple-negative breast cancer, colon and lung syngeneic tumor models; design: method as in PMID 35265193; settings: combined with an anti-PD-L1 antibody
PD-L1 [8] = test system: PD-L1; design: method as in PMID 33220359
IDO1 [9] = test system: IDO1; design: method as in PMID 36389710
IDO2 [10] = test system: IDO2; design: method as in PMID 36389710
IDO [11] = test system: IDO; design: method as in PMID 35120895; settings: via inhibition of the JAK–STAT–IRF1 pathway
PD-L1 [12] = test system: PD-L1; design: method as in PMID 35120895; settings: via inhibition of the JAK–STAT–IRF1 pathway
IDO2 [13] = test system: IDO2; design: method as in PMID 29247038; settings: relative to the D-isomer
T cell activation = test system: T cell activation; design: method as in PMID 35663990; settings: glutaminase inhibitor; autoimmune hepatitis
IDO1 [14] = settings: COX-2 inhibition; IFNγ-induced
[15] = test system: activated human CD4+T cells; design: method as in PMID 32641388; settings: each compound separately
AHR = test system: AHR; design: method as in PMID 34025677; settings: AHR antagonist; induction by kynurenine in CD8+ T cells
experimental arthritis = test system: experimental arthritis; design: method as in PMID 33941676; settings: IDO-dependent manner

Compound: CC(=O)NCCc1c[nH]c2ccc(O)cc12 [N-acetyl-5-hydroxy-tryptamine]
- mode of action on IDO activity (IDO [1]): positive allosteric modulator

Compound: O=Cc1c2[nH]c3ccccc3c2cc2[nH]c3ccccc3c12 [FICZ, 6-Formylindolo-[3,2-b]-carbazole]
- metabolism / removal [2]: rapidly removed

Compound: Nc1ncnc2c1ncn2[C@@H]1O[C@@H]2COP(=O)(O)O[C@H]3[C@@H](O)[C@H](n4cnc5c(N)ncnc54)O[C@@H]3COP(=O)(O)O[C@H]2[C@H]1O [CDA, cyclic di-adenyl monophosphate]
- survival (Lewis lung carcinomas): enhanced survival
- tumor growth (Lewis lung carcinomas): controlled tumor growth

Compound: C=C1C(=O)O[C@H]2C[C@@H](C)[C@@H]3[C@@H](OC(C)=O)C[C@H](O)[C@@]3(C)[C@@H](OC(C)=O)[C@H]12 [Britannin]
- expression of PD-L1 (PD-L1 [3]): reducing the expression of PD-L1

Compound: O=C(CCCCCCNC(=O)c1cnc(N(c2ccccc2)c2ccccc2Cl)nc1)NO [ACY241]
- efficacy against multiple myeloma (multiple myeloma): effective

Compound: Cc1ccc(-c2cc(C(F)(F)F)nn2-c2ccc(S(N)(=O)=O)cc2)cc1 [celecoxib]
- induction of IDO1 (IDO1 [4]): prevented the induction of IDO1

Compound: CC(=O)Nc1cccc(-n2c(=O)n(C3CC3)c(=O)c3c(Nc4ccc(I)cc4F)n(C)c(=O)c(C)c32)c1 [Trametinib]
- T cell viability and proliferation (T cell): promote T cell viability and proliferation

Compound: NS(=O)(=O)NCCNc1nonc1C(=NO)Nc1ccc(F)c(Br)c1 [Epacadostat]
- trial outcome (melanoma; combined with the PD-1 antagonist pembrolizumab): no significant benefit
- clinical efficacy (melanoma; randomized trial combined with pembrolizumab in patients with melanoma): clinically ineffective

Compound: Cn1cc(C[C@@H](N)C(=O)O)c2ccccc21 [Indoximod, 1-methyl-D-tryptophan]
- trial outcome [6]: [224] Combination with sipuleucel-T yielded radiological and clinical improvement
- trial outcome (Metastatic breast cancer): [226] No improvement compared with taxane

Compound: CCCNS(=O)(=O)Nc1ncnc(OCCOc2ncc(Br)cn2)c1-c1ccc(Br)cc1 [macitentan]
- anti-tumor efficacy [7]: improved anti-tumor efficacy

Compound: COc1ccc(CCc2cc(OC)c(OC)c(OC)c2)cc1O [erianin]
- PD-L1 expression (PD-L1 [8]): inhibited PD-L1 expression

Compound: Clc1cc2c(cc1Cl)Oc1cc(Cl)c(Cl)cc1O2 [TCDD, 2,3,7,8-tetrachloro-dibenzo-dioxin]
- metabolism / removal [2]: poorly metabolized

Compound: CCCCCCCC1=Nc2ccccc2C(=O)C1O (stereo not shown) [PQS, 2-heptyl-3-hydroxy-4-quinolone]
- expression of IDO1 (IDO1 [9]): inhibits
- expression of IDO2 (IDO2 [10]): inhibits

Compound: O=c1c(O)c(-c2cc(O)c(O)c(O)c2)oc2cc(O)cc(O)c12 [myricetin]
- induction of IDO by IFNγ (IDO [11]): prevent the induction
- induction of PD-L1 by IFNγ (PD-L1 [12]): prevent the induction

Compound: Cn1cc(C[C@H](N)C(=O)O)c2ccccc21 (single isomer, unassigned; isomer 1) [L-isomer, 1-methyl-tryptophan]
- inhibiting IDO2 (IDO2 [13]): much more active

Compound: [N-]=[N+]=CC(=O)CC[C@H](N)C(=O)O [DON, 6-diazo-5-oxo-L-norleucine]
- T cell activation (T cell activation): inhibited T cell activation

Compound: CS(=O)(=O)Nc1ccc([N+](=O)[O-])cc1Oc1ccccc1 [nimesulide]
- induction of IDO1 (IDO1 [14]): prevented induction of IDO1

Compound: O=CC[C@@H](O)[C@H](O)[C@H](O)CO [2-deoxyglucose]
- IFNγ production [15]: inhibit IFNγ production

Compound: Cc1ccccc1N=Nc1ccc(NC(=O)c2ccnn2C)c(C)c1 [CH223191]
- induction of PD-1 (AHR): blocked the induction of PD-1

Compound: CN(C)C(=N)N=C(N)N [metformin]
- IFNγ production [15]: inhibit IFNγ production

Compound: Nc1ncn([C@H]2C[C@H](O)[C@@H](CO)O2)c(=O)n1 [decitabine]
- occurrence of relapse (experimental arthritis): prevented the occurrence of relapse
- symptoms of arthritis (experimental arthritis): reduced the symptoms of arthritis
